For this assay, the system named is restless legs syndrome. The experiment in a line: Oral preparation given to patients diagnosed with restless legs syndrome. The class given is in vivo, human. The settings on record: 10 μg oral soft capsule; for time until abnormal sensation disappeared after taking the preparation: RLS patient. As to the method:
A solution containing 10 μg of (−)-17-(cyclopropylmethyl)-3,14β-dihydroxy-4,5α-epoxy-6β[N-methyl-trans-3-(3-furyl)acrylamide]morphinan hydrochloric acid salt 1 [drawing 10]
was encapsulated into a soft capsule made of gelatin to obtain an oral preparation. This oral preparation was administered to two patients who had been diagnosed as restless legs syndrome. Both of the two patients complained abnormal itchy sensation on the lower limbs and sleep is sometimes disturbed. By taking the oral preparation, the abnormal sensation disappeared 2 hours after taking the preparation in one patient, and 4 hours after taking the preparation in another patient.

Structures can show the parent of a compound that is named as a salt.

Take `CN(C(=O)/C=C/c1ccoc1)[C@@H]1CC[C@@]2(O)C3Cc4ccc(O)c5c4[C@@]2(CCN3CC2CC2)[C@H]1O5` (single isomer, unassigned; (-)) [Compound 1, (−)-17-(cyclopropylmethyl)-3,14β-dihydroxy-4,5α-epoxy-6β[N-methyl-trans-3-(3-furyl)acrylamide]morphinan hydrochloric acid salt]: the “time until abnormal sensation disappeared after taking the preparation” value by setting is: (another patient) 4 h; (one patient) 2 h. In addition, under “both of the two RLS patients”, the “duration of the effect for eliminating the abnormal sensation” value is not below 24 h. In addition, for the setting “both of the two RLS patients”, the “sleep disturbance in the night” value is on record as “sleep disturbance did not occur”. In addition, the “therapeutic effect against restless legs syndrome” value (two RLS patients) is “clearly had therapeutic effect against restless legs syndrome”.
